Results: patent US7915012B2, “Methods for screening for inhibitors of TRPV2 activation” (Korea University Industry and Academic Collaboration …, priority 2008, dated 2011)
“Also recorded” adds a separate entry of the source.

Legend:
Details in all cases: 100 μM probenecid
mTRPA1 = target: T1, mTRPA1 (Mus musculus, UniProt Q8BLA8); assay: Fluo-3 calcium imaging in TRPA1 transfected HEK293T cell line; type: cell-based
T1 construct: expressed in transfected cells; host or cells: HEK293T (ATCC CRL-11268)
T1 sequence (Q8BLA8 whole entry): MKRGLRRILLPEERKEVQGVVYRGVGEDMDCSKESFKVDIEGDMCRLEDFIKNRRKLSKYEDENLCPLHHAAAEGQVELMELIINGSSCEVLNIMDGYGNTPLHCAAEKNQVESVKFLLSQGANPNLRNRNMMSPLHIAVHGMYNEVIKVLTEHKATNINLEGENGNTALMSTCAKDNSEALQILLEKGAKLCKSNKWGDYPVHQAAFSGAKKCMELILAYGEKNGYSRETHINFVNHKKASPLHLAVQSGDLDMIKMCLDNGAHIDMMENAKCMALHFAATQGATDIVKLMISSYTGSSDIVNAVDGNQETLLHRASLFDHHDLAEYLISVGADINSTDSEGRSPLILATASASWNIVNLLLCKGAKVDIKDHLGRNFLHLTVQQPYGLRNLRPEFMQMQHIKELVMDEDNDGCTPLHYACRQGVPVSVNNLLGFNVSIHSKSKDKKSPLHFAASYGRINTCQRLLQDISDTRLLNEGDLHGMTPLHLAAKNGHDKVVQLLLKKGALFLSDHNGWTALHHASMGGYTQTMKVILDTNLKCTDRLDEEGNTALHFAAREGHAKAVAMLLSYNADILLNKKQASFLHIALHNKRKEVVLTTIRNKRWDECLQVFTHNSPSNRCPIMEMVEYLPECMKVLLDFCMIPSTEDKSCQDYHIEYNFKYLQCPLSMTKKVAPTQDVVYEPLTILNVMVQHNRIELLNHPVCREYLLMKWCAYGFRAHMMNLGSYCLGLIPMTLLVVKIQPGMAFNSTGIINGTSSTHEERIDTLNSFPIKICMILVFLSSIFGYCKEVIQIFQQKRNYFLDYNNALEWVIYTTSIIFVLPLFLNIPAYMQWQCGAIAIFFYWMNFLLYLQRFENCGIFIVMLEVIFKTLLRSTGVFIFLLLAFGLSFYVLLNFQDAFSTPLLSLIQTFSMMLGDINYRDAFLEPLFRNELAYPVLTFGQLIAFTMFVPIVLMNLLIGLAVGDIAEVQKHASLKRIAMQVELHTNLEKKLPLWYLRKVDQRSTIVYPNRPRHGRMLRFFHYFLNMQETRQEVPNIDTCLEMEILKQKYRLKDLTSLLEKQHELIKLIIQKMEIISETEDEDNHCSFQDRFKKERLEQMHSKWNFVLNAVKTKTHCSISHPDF
Method: (§1) HEK293T cell line (ATCC CRL-1 1268) was transiently transfected with plasmid DNA containing polynucleotide encoding […] (SEQ. ID. NO: 1), rTRPV2 (SEQ. ID. NO: 2), mTRPV3 (SEQ. ID. NO: 3), rTRPV4 (SEQ. ID. NO: 4), mTRPM8 (SEQ. ID. NO: 5) or mTRPA1 (SEQ. ID. NO: 6).
(§2) Particularly, the HEK293T cell line was transiently transfected with individual TRP channel plasmid (pcDNA3.1 containing polynucleotide encoding rTRPV1, rTRPV2, mTRPV3, rTRPV4, mTRPM8 or mTRPA1), and 600 ng/well of pCDNA3 (Invitrogen Corp., USA; containing green fluorescent protein (GFP) cDNA) using Fugene6 (Roche Diagnostics, USA) according to manufacturer's instruction. The transformed cells were cultured in DMEM/F12 containing 10% FBS and 1% penicillin/streptomycin in a CO2 incubator for 24 hours. The cells were replated onto poly-L-lysine-coated glass coverslips, followed by further culture for 10-24 hours.
(§3) Particularly, the transfected cell line of Example <3-1> and Example <3-2> was loaded with Fluo-3AM (5 μM; Sigma Aldrich, USA) in the bath solution (140 mM NaCl, 5 mM KCl, 2 mM CaCl2, 1 mM MgCl2, 10 mM HEPES; adjusted to pH 7.4 with NaOH) containing 0.02% pluronic acid (Invitrogen, USA) at 37° C. for 1 hour. […]

rTRPV4 = target: T2, rTRPV4 (Rattus norvegicus, UniProt Q9ERZ8); assay: Fluo-3 calcium imaging in TRPV4 transfected HEK293T cell line; type: cell-based
T2 construct: expressed in transfected cells; host or cells: HEK293T (ATCC CRL-11268)
T2 sequence (Q9ERZ8 whole entry): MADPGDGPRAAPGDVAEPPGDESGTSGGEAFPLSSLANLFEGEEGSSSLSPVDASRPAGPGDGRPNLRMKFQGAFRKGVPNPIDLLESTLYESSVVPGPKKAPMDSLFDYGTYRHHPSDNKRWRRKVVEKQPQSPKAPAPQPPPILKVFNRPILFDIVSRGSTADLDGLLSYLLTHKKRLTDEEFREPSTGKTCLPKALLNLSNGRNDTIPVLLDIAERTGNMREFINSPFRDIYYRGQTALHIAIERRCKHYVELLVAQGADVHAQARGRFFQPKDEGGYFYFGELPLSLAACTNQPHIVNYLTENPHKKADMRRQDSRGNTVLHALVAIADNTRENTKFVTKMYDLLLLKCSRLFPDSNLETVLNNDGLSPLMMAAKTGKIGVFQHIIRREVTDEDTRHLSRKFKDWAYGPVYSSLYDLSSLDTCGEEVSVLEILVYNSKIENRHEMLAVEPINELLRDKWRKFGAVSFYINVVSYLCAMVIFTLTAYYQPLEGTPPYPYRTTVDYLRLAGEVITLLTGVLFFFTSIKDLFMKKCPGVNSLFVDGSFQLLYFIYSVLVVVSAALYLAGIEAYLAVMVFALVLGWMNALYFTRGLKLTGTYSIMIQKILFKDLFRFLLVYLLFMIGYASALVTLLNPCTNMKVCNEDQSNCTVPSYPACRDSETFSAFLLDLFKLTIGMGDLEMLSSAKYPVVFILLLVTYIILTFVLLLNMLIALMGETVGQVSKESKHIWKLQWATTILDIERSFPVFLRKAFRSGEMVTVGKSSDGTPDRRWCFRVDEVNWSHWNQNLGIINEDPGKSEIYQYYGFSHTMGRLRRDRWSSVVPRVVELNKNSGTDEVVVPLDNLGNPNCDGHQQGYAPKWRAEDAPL
Method: as §1, §2, §3

mTRPM8 = target: T3, mTRPM8 (Mus musculus, UniProt Q8R4D5); assay: Fluo-3 calcium imaging in TRPM8 transfected HEK293T cell line; type: cell-based
T3 construct: expressed in transfected cells; host or cells: HEK293T (ATCC CRL-11268)
T3 sequence (Q8R4D5 whole entry): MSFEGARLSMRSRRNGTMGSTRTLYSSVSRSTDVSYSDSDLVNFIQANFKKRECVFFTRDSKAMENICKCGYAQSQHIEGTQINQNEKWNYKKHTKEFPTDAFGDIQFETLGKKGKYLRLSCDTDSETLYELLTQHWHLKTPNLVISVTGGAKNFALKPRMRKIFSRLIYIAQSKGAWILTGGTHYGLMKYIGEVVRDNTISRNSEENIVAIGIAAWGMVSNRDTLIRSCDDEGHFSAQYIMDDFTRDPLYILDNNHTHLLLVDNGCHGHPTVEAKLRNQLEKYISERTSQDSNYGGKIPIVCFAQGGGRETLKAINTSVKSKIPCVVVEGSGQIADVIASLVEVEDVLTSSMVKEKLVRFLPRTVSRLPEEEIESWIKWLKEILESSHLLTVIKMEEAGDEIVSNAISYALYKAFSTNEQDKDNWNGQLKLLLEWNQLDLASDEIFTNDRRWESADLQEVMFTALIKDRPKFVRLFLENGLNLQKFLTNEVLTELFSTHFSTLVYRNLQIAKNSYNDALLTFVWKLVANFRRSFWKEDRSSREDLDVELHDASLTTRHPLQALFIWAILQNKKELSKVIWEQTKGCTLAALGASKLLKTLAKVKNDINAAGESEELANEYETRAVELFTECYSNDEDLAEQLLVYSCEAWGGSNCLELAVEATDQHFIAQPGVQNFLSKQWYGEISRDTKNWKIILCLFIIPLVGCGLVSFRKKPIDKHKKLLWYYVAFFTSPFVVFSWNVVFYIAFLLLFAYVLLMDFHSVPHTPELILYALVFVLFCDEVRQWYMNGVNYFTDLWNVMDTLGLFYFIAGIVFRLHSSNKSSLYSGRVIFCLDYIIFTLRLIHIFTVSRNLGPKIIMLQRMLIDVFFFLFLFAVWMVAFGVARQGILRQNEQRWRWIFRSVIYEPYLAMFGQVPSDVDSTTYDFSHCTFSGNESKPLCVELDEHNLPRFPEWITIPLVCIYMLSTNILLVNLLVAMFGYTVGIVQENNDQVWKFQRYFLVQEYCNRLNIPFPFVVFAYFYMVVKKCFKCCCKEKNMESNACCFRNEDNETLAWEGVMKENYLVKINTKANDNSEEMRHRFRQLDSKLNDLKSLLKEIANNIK
Method: as §1, §2, §3

trigeminal neurons [1] = assay: Whole-cell voltage-clamp recording in trigeminal neurons; type: cell-based, ICR mice
trigeminal neurons [2] = assay: Calcium imaging of cultured trigeminal neurons; type: cell-based, ICR mice
Method: Trigeminal ganglia were dissected out of decapitated adult ICR mice in cold PBS and treated with 1.5 mg/ml of collagenase/dispase (Roche Diagnostics, USA) at 37° for 45 min, and then treated with 0.25% trypsin (Invitrogen, USA) for 15 min. The trigeminal neurons prepared thereby were then plated onto poly-L-lysinecoated coverslips in DMEM/F12 containing 10% FBS, 1% penicillin/streptomycin and 5 ng/ml of 2.5S NGF (Invitrogen, USA), followed by culture in a CO2 incubator for 48-72 hours.
Calcium imaging was performed with a confocal microscope (LSM5 Pascal, Carl Zeiss, Germany), and time-lapse images (excitation 488 nm/emission 514 nm) were collected every 3 seconds using Carl Zeiss ratio tool software (Carl Zeiss, Germany).
The trigeminal neurons prepared by the same manner as described in Example 2 were delayed-treated with 100 μM probenecid or 4 kinds of TRP activators: TRPM8 activator menthol 400 μM, TRPA1 activator cinnamaldehyde (MP Biomedicals, USA) 300 μM, TRPV1 activator capsaicin (Sigma-Aldrich, USA) 2 μM and TRPV1-3 activator 2-APB 300 μM.
The trigeminal neurons prepared by the same manner as described in Example 2 were treated with 300 μM 2-APB+100 μM probenecid, 300 μM 2-APB+2 μM capsaicin, 300 μM 2-APB+300 μM cinnamaldehyde+2 μM capsaicin, 300 μM 2-APB +2 μM capsaicin +100 μM probenecid, 300 μM 2-APB +400 μM menthol and 300 μM 2-APB, respectively.

CCCN(CCC)S(=O)(=O)c1ccc(C(=O)O)cc1 [probenecid]
TRPA1 activation (calcium imaging) (mTRPA1): only TRPV2 was activated; also recorded: not confirmed | TRPV4 activation (calcium imaging) (rTRPV4): only TRPV2 was activated; also recorded: not confirmed | TRPM8 activation (calcium imaging) (mTRPM8): only TRPV2 was activated; also recorded: not confirmed | probenecid induced currents in 2-APB-sensitive trigeminal neurons (trigeminal neurons [1]): exhibited outward rectifying | calcium influx in a trigeminal neuron group (trigeminal neurons [2]): calcium influx induced | neurons sensitive to probenecid among neurons responding to capsaicin (trigeminal neurons [2]; 2 μM capsaicin): 5 out of 111 | share of capsaicin-sensitive neurons that responded to probenecid (trigeminal neurons [2]; 2 μM capsaicin): 3.5% | response of 2-APB reactive neurons to probenecid (trigeminal neurons [2]; 2-APB 300 μM): responded | response of major capsaicin-sensitive and all capsaicin/cinnamaldehyde-sensitive neuron groups to probenecid (trigeminal neurons [2]; capsaicin 2 μM, cinnamaldehyde 300 μM): did not exhibit probenecid induced intracellular calcium influx | response of menthol-reactive TRPM8 positive neurons to probenecid (trigeminal neurons [2]; menthol 400 μM): did not respond
